ChEMBL document CHEMBL5537189 (J Med Chem, 2024)

Experiments:
[1] = target: T1, Retinoic acid receptor RXR-gamma (Homo sapiens, UniProt P48443)
T1 sequence (P48443 whole entry): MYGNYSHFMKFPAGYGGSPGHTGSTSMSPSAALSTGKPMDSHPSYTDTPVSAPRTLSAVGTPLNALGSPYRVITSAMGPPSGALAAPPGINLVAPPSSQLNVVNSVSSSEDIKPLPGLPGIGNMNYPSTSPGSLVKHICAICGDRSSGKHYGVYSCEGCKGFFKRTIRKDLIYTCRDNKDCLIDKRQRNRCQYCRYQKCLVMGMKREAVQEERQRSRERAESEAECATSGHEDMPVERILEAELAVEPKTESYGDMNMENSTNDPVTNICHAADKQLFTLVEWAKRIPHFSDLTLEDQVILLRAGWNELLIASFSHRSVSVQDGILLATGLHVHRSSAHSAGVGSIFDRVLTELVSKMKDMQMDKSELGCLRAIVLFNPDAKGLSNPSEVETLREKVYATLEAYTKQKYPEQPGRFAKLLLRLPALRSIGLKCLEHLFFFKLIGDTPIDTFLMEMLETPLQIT

[2] = target: T2, Retinoic acid receptor RXR-alpha (Homo sapiens, UniProt P19793)
T2 sequence (P19793 whole entry): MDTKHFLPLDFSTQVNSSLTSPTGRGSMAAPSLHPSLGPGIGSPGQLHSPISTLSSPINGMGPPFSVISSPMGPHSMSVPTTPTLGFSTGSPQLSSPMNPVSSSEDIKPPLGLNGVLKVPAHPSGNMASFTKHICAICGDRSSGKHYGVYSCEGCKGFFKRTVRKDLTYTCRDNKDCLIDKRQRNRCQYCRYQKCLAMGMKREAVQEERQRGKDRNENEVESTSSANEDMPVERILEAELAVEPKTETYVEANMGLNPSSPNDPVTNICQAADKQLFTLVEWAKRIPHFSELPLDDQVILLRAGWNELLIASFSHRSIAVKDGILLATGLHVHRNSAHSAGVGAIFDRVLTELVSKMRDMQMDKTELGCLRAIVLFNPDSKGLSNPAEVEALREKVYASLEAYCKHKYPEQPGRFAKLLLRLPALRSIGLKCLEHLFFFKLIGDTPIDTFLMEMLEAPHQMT

[3] = target: T3, Retinoic acid receptor RXR-beta (Homo sapiens, UniProt P28702)
T3 sequence (P28702 whole entry): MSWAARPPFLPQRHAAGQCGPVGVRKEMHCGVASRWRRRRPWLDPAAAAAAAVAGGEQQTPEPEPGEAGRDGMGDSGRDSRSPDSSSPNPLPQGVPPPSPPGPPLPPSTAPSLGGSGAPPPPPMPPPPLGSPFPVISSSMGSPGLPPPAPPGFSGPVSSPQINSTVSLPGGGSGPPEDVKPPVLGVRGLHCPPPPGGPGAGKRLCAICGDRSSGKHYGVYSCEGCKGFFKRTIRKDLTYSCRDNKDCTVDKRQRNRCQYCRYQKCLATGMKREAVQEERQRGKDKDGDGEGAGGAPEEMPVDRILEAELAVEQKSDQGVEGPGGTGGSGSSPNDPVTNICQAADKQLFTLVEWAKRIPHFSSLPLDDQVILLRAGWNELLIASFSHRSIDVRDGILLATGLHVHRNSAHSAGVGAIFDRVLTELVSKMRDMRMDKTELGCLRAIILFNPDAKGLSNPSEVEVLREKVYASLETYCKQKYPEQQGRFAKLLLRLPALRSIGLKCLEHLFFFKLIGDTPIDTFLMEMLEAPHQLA
Description: Partial agonist activity at recombinant human RXR beta LBD (298 to 533 residues) expressed in Escherichia coli Rosetta incubated for 16 hrs by Gal4-hybrid reporter gene based Dual-glo luciferase assay

[4] = target: T3, Retinoic acid receptor RXR-beta; assay: Partial agonist activity at full length human RXR beta transfected in HEK293T cells assessed as DR1 activation incubated for 16 hrs by Dual-glo luciferase assay; assay type: cell-based

| EC50 [1] [nM] | EC50 [2] [nM] | EC50 [3] [nM] | EC50 [4] | Structure (SMILES) |
| --- | --- | --- | --- | --- |
| 6000 | – | – | – | CN(c1ccc(Cl)c(Cl)c1)c1cc(Cl)nc(OCCC(=O)O)n1 |
| 31000 | 4200 | – | – | CN(c1ccccc1)c1cc(Cl)nc(OCCC(=O)O)n1 |
| 2600 | 400 | – | – | Cc1cccc(N(C)c2cc(Cl)nc(OCCC(=O)O)n2)c1 |
| 2700 | – | – | – | CN(c1cccc(C(F)(F)F)c1)c1cc(Cl)nc(OCCC(=O)O)n1 |
| 1800 | – | – | – | CN(c1cccc(Br)c1)c1cc(Cl)nc(OCCC(=O)O)n1 |
| 14000 | 3200 | – | – | CN(c1cc(Cl)nc(OCCC(=O)O)n1)c1cccc(Cl)c1Cl |
| 2400 | 560 | – | – | CN(c1cccc(Cl)c1)c1cc(Cl)nc(OCCC(=O)O)n1 |

The remaining lines, values behind:

| Structure (SMILES) | EC50 [1] [nM] | EC50 [2] [nM] | EC50 [3] [nM] | EC50 [4] |
| --- | --- | --- | --- | --- |
| Cc1ccc2c(c1)N(c1cc(Cl)nc(OCCC(=O)O)n1)CCC2 | – | 38 | – | – |
| CC1CCN(c2cc(Cl)nc(OCCC(=O)O)n2)c2cc(Cl)ccc21 (stereo unspecified) | 100 | – | – | – |
| CN(c1cc(Cl)nc(OCCC(=O)O)n1)c1cccc2c1CCC2 | 1200 | – | – | – |
| CC1(C)CCN(c2cc(Cl)nc(OCCC(=O)O)n2)c2ccccc21 | 11 | 9 | – | – |
| Cc1cccc2c1CCCN2c1cc(Cl)nc(OCCC(=O)O)n1 | 480 | 90 | – | – |
| CC1CCN(c2cc(Cl)nc(OCCC(=O)O)n2)c2ccccc21 (stereo unspecified) | 50 | 7 | 100 | – |
| CN(c1cc(Cl)cc(Cl)c1)c1cc(Cl)nc(OCCC(=O)O)n1 | – | 260 | – | – |
| Cc1ccc2c(c1)N(c1cc(Cl)nc(OCCC(=O)O)n1)CCC2C (stereo unspecified) | 60 | 40 | 34 | – |
| O=C(O)CCOc1nc(Cl)cc(N2CCCc3ccccc32)n1 | 680 | 110 | – | – |
| CC1CCc2ccccc2N1c1cc(Cl)nc(OCCC(=O)O)n1 (stereo unspecified) | – | – | – | Not Active |
| Cc1cc(C)cc(N(C)c2cc(Cl)nc(OCCC(=O)O)n2)c1 | 160 | – | – | – |
| O=C(O)CCOc1nc(Cl)cc(N2CCCc3ccc(Cl)cc32)n1 | 140 | 19 | – | – |
| CN(c1cc(C(F)(F)F)cc(C(F)(F)F)c1)c1cc(Cl)nc(OCCC(=O)O)n1 | – | 150 | – | – |
| CC1Cc2ccccc2N(c2cc(Cl)nc(OCCC(=O)O)n2)C1 (stereo unspecified) | 220 | 29 | 34 | – |
| Cc1cc(C)c2c(c1)N(c1cc(Cl)nc(OCCC(=O)O)n1)CCC2 | 40 | – | – | – |
